Results from patent publication US20040029938A1, “Medicaments” (priority 2000, published 2004).

Tested on: inducible nitric oxide synthase (INOS)
Assay: LPS-induced INOS activity in J774 cells (DAF-2 fluorescence)
Assay type: cell-based, mouse
Details: pre-treatment 6 hours before and 24 hours after LPS (1 μg/ml), sub-nanomolar-nanomolar concentrations, FIG. 1
Procedure: In this assay system, lipopolysaccharide (LPS) was used to induce the expression of INOS in the mouse macrophage cell line, J774. […] This reduction in INOS activity correlated with a reduction in LPS-induced INOS mRNA expression.
Specifically, LPS-induced INOS activity was measured using the following assay conditions. J774 cells were seeded at a density of […] per well, in a black, clear-bottomed, 96 well plate, 24hours prior to use. The cell culture and the drug dilutions were carried out in complete media, which consisted of DMEM (Dulbecco's modification of Eagle's medium) containing foetal calf serum (10%), glutamine (2 mM), penicillin (100 μ/ml) and streptomycin (100 μg/ml). The J774 cells were pre-treated with the PPAR delta activators A and B, or vehicle, for 6 hours prior to, and for 24 hours subsequent to the addition of LPS (typically, a concentration of 1 μg/ml of LPS was used). Twenty-four hours after the addition of LPS, INOS activity was measured by the following method. […] After incubation at 37° C. for 3 hours, fluorescence from each well was measured at an excitation wavelength of 485 nm, and an emission wavelength of 530 nm. […]
LPS to induce INOS activity, in the presence and absence of PPAR delta activators, was then calculated. […]

Row | Structure (SMILES) | inhibition of LPS-induced INOS activity
1 | Cc1cc(SCc2sc(-c3ccc(C(F)(F)F)c(F)c3)nc2C)ccc1OCC(=O)O [Compound B, 2-{2-methyl-4-[({4-methyl-2-[3-fluoro-4-(trifluoromethyl)phenyl]-1,3-thiazol-5-yl}methyl)sulfanyl]phenoxy}acetic acid] | marked inhibition
2 | Cc1cc(SCc2sc(-c3ccc(C(F)(F)F)cc3)nc2C)ccc1OCC(=O)O [Compound A, 2-{2-methyl-4-[({4-methyl-2-[4-(trifluoromethyl)phenyl]-1,3-thiazol-5-yl}methyl)sulfanyl]phenoxy}acetic acid] | marked inhibition
